Laboratory results reported in the supplement of paper PMC7394473.

What was measured:
Conditions in all cases: 72 h
[1] = system: U2OS; assay: fractional viability (live cells / total cells); higher = less cell death
Description: (§1)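 U2OS::Nuc-mKate2 cells seeded in 96-well plates and treated with eight- to ten-point half-log or log dilutions of drug in the presence of 50 nM SYTOX Green. Live (mKate2+) and dead (SYTOX+) cells were counted by IncuCyte STACK live-cell microscopy at 72 h; biological triplicates. GR is the normalised growth-rate inhibition value (Hafner 2016; 1 = untreated growth, <0 = population shrinking). FV is live/(live+dead) cells, not normalised.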

[2] = system: U2OS; assay: GRmin (fitted minimal GR value at highest effect) (GR value (dimensionless)); higher = less efficacious
Description: (§2)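 U2OS cells treated with full dose titrations of drug; live and dead cells counted by STACK microscopy (mKate2 nuclei, SYTOX Green) at 72 h, biological triplicates. GR and FV dose responses were fitted with 4-parameter logistic models (GR lower bound -1). GRADE (0-100) is the rescaled angle of a linear fit of FV versus GR at doses with GR >= 0, giving the percentage of the response due to cell death.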

[3] = system: U2OS; assay: normalized growth rate inhibition value (GR) relative to untreated cells (GR value (dimensionless, 1 = untreated growth)); higher = less growth inhibition
Description: as §1

[4] = system: U2OS; assay: GR50 (concentration giving GR = 0.5)
Description: as §2

[5] = system: U2OS; assay: drug GRADE (percent of response due to cell death) (% (0-100)); higher = more death-driven response
Description: as §2

CC1CCc2cc(F)cc3c(=O)c(C(=O)O)cn1c23 (stereo not drawn) [Flumequine]
Conditions	fractional viability, [1]	normalized growth rate inhibition value, [3]
0.01 µM	0.98	0.959
0.0316 µM	0.971	1.02
0.1 µM	0.981	0.966
0.316 µM	0.977	0.928
1 µM	0.971	0.907
3.16 µM	0.974	0.962
10 µM	0.977	1.1
31.6 µM	0.976	0.969

Conditions	GRmin
[2]	1

O=C(O)CCNc1cc(N2CCc3ccccc3CC2)nc(-c2ccccn2)n1 [GSKJ1]
Conditions	fractional viability, [1]	normalized growth rate inhibition value, [3]
0.01 µM	0.979	1.03
0.0316 µM	0.981	0.985
0.1 µM	0.98	0.962
0.316 µM	0.976	1.06
1 µM	0.985	1.02
3.16 µM	0.974	0.996
10 µM	0.975	1.01
31.6 µM	0.974	0.83

Conditions	GRmin
[2]	0.339

C=CCc1ccc(O)c(-c2ccc(O)c(CC=C)c2)c1 [Honokiol]
Conditions	fractional viability, [1]	normalized growth rate inhibition value, [3]
0.01 µM	0.978	1.04
0.0316 µM	0.974	1.07
0.1 µM	0.978	0.96
0.316 µM	0.983	1.03
1 µM	0.978	0.897
3.16 µM	0.979	0.981
10 µM	0.981	0.95
31.6 µM	0.969	0.774

CC(C)n1nc(-c2ccc3oc(N)nc3c2)c2c(N)ncnc21 [INK-128]
Conditions	GR50 [µM]	GRmin	drug GRADE
[2]	–	0.0247	–
[4]	0.0318	–	–
[5]	–	–	10.9

Conditions	fractional viability, [1]	normalized growth rate inhibition value, [3]
0.000318058 µM	0.987	0.831
0.00100506 µM	0.989	0.849
0.003176 µM	0.989	0.896
0.0100362 µM	0.987	0.726
0.0317143 µM	0.982	0.484
0.100217 µM	0.965	0.226
0.316686 µM	0.95	0.223
1.00073 µM	0.915	0.0973
3.1623 µM	0.855	-0.0193

CC(C)NC[C@@H](C(=O)N1CCN(c2ncnc3c2[C@H](C)C[C@H]3O)CC1)c1ccc(Cl)cc1 [Ipatasertib]
Conditions	fractional viability, [1]	normalized growth rate inhibition value, [3]
0.00100578 µM	0.99	0.9
0.00317827 µM	0.986	0.946
0.0100433 µM	0.986	1.14
0.0317369 µM	0.983	0.981
0.100289 µM	0.986	0.885
0.316912 µM	0.988	0.945
1.00144 µM	0.987	0.88
3.16456 µM	0.976	0.824
10 µM	0.947	0.548

Conditions	drug GRADE
[5]	6.49

CC1(C)CCC(c2ccc(Cl)cc2)=C(CN2CCN(c3ccc(C(=O)NS(=O)(=O)c4ccc(N[C@H](CCN5CCOCC5)CSc5ccccc5)c(S(=O)(=O)C(F)(F)F)c4)cc3)CC2)C1 [Navitoclax]
Conditions	fractional viability, [1]	normalized growth rate inhibition value, [3]
0.01 µM	0.98	0.981
0.0316 µM	0.983	1.04
0.1 µM	0.978	0.941
0.316 µM	0.978	1.02
1 µM	0.978	0.95
3.16 µM	0.972	0.94
10 µM	0.947	0.841
31.6 µM	0.887	0.891

Conditions	GRmin
[2]	0.866

CO[C@@H]1C[C@@H](C[C@H]2CC[C@H](C)[C@H]([C@@H](C)C(=O)O)O2)O[C@]2(O[C@](C)([C@H]3CC[C@@](C)([C@@H]4O[C@@H]([C@H]5O[C@@](O)(CO)[C@H](C)C[C@@H]5C)C[C@@H]4C)O3)C[C@H]2C)[C@@H]1C [Nigericin]
Conditions	GR50 [µM]	GRmin	drug GRADE
[2]	–	-0.311	–
[4]	0.436	–	–
[5]	–	–	57.3

Conditions	fractional viability, [1]	normalized growth rate inhibition value, [3]
0.01 µM	0.963	0.857
0.0316 µM	0.957	0.78
0.1 µM	0.903	0.777
0.316 µM	0.829	0.484
1 µM	0.625	0.277
3.16 µM	0.661	0.287
10 µM	0.685	0.155
31.6 µM	0.449	-0.106

O=C(c1cc(Cc2n[nH]c(=O)c3ccccc23)ccc1F)N1CCN(C(=O)C2CC2)CC1 [Olaparib]
Conditions	fractional viability, [1]	normalized growth rate inhibition value, [3]
0.00100578 µM	0.992	1.03
0.00317827 µM	0.988	0.94
0.0100433 µM	0.989	1.03
0.0317369 µM	0.992	1.02
0.100289 µM	0.99	0.964
0.316912 µM	0.989	0.956
1.00144 µM	0.987	0.922
3.16456 µM	0.982	0.85
10 µM	0.96	0.511

Conditions	drug GRADE
[5]	6.58

CC(=O)c1c(C)c2cnc(Nc3ccc(N4CCNCC4)cn3)nc2n(C2CCCC2)c1=O [Palbociclib]
Conditions	GR50 [µM]	GRmin	drug GRADE
[2]	–	0.176	–
[4]	1.15	–	–
[5]	–	–	3.13

Conditions	fractional viability, [1]	normalized growth rate inhibition value, [3]
0.000317827 µM	0.992	1.08
0.00100433 µM	0.992	0.975
0.00317369 µM	0.99	0.904
0.0100289 µM	0.989	0.841
0.0316912 µM	0.989	0.721
0.100144 µM	0.984	0.769
0.316456 µM	0.988	0.639
1 µM	0.987	0.525
3.16 µM	0.972	0.398

Cc1ccc(Nc2nccc(N(C)c3ccc4c(C)n(C)nc4c3)n2)cc1S(N)(=O)=O [Pazopanib]
Conditions	GR50 [µM]	GRmin	drug GRADE
[2]	–	0.369	–
[4]	19.9	–	–
[5]	–	–	47.8

Conditions	fractional viability, [1]	normalized growth rate inhibition value, [3]
0.01 µM	0.98	0.995
0.0316 µM	0.986	1.04
0.1 µM	0.98	1.07
0.316 µM	0.978	1
1 µM	0.979	1.04
3.16 µM	0.978	0.915
10 µM	0.917	0.68
31.6 µM	0.763	0.431

CS(=O)(=O)N1CCN(Cc2cc3nc(-c4cccc5[nH]ncc45)nc(N4CCOCC4)c3s2)CC1 [Pictilisib]
Conditions	GR50 [µM]	GRmin	drug GRADE
[2]	–	0.374	–
[4]	1.48	–	–
[5]	–	–	30.9

Conditions	fractional viability, [1]	normalized growth rate inhibition value, [3]
0.00100578 µM	0.988	1.02
0.00317827 µM	0.989	0.948
0.0100433 µM	0.985	0.953
0.0317369 µM	0.985	0.837
0.100289 µM	0.975	0.872
0.316912 µM	0.96	0.842
1.00144 µM	0.936	0.628
3.16456 µM	0.844	0.306
10 µM	0.854	0.455

C=CCNc1ncnc2ccc(Br)cc12 [SMER28]
Conditions	fractional viability, [1]	normalized growth rate inhibition value, [3]
0.01 µM	0.977	1.03
0.0316 µM	0.977	1.09
0.1 µM	0.98	0.962
0.316 µM	0.979	1.02
1 µM	0.982	1.02
3.16 µM	0.975	0.992
10 µM	0.973	0.909
31.6 µM	0.977	0.866

Conditions	GRmin
[2]	0.864

Cc1cc(C(C)Nc2ccccc2)c2nc(N3CCOCC3)cc(=O)n2c1 (stereo not drawn) [TGX221]
Conditions	fractional viability, [1]	normalized growth rate inhibition value, [3]
0.00100578 µM	0.988	1.1
0.00317827 µM	0.986	1.06
0.0100433 µM	0.988	1.04
0.0317369 µM	0.986	1.02
0.100289 µM	0.988	0.94
0.316912 µM	0.99	1.02
1.00144 µM	0.986	0.955
3.16456 µM	0.986	1.08
10 µM	0.977	1

Conditions	GRmin
[2]	0.951

Cc1nc(-c2cn3c(n2)-c2ccc(-c4cnn(C(C)(C)C(N)=O)c4)cc2OCC3)n(C(C)C)n1 [Taselisib]
Conditions	GR50 [µM]	drug GRADE
[4]	4.98	–
[5]	–	24.5

Conditions	fractional viability, [1]	normalized growth rate inhibition value, [3]
0.00100578 µM	0.987	1
0.00317827 µM	0.983	0.924
0.0100433 µM	0.979	0.852
0.0317369 µM	0.973	0.765
0.100289 µM	0.964	0.83
0.316912 µM	0.952	0.69
1.00144 µM	0.959	0.669
3.16456 µM	0.937	0.604
10 µM	0.856	0.389

Cn1nnc2c(C(N)=O)ncn2c1=O [Temozolamide]
Conditions	fractional viability, [1]	normalized growth rate inhibition value, [3]
0.01 µM	0.982	0.992
0.0316 µM	0.982	1.07
0.1 µM	0.981	0.975
0.316 µM	0.977	1.05
1 µM	0.975	0.984
3.16 µM	0.978	0.894
10 µM	0.98	0.954
31.6 µM	0.975	1.02

Conditions	GRmin
[2]	0.955

Nc1ccc(-c2ccc3ncc4ccc(=O)n(-c5cccc(C(F)(F)F)c5)c4c3c2)cn1 [Torin2]
Conditions	fractional viability, [1]	normalized growth rate inhibition value, [3]
0.000100578 µM	0.988	0.795
0.000317827 µM	0.985	0.854
0.00100433 µM	0.986	0.924
0.00317369 µM	0.988	0.826
0.0100289 µM	0.988	0.841
0.0316912 µM	0.989	0.85
0.100144 µM	0.987	0.832
0.316456 µM	0.985	0.916
1 µM	0.971	0.523

Conditions	GRmin	drug GRADE
[2]	-0.853	–
[5]	–	4.29

CC(=O)Nc1cccc(-n2c(=O)n(C3CC3)c(=O)c3c(Nc4ccc(I)cc4F)n(C)c(=O)c(C)c32)c1 [Trametinib]
Conditions	fractional viability, [1]	normalized growth rate inhibition value, [3]
0.000100578 µM	0.978	0.839
0.000317827 µM	0.974	0.677
0.00100433 µM	0.965	0.696
0.00317369 µM	0.951	0.569
0.0100289 µM	0.915	0.582
0.0316912 µM	0.732	0.319
0.100144 µM	0.524	0.0761
0.316456 µM	0.442	0.0524
1 µM	0.466	0.0402

CC[C@]1(O)C[C@@H]2CN(CCc3c([nH]c4ccccc34)[C@@](C(=O)OC)(c3cc4c(cc3OC)N(C)[C@H]3[C@@](O)(C(=O)OC)[C@H](OC(C)=O)[C@]5(CC)C=CCN6CC[C@]43[C@@H]65)C2)C1 [Vinblastine]
Conditions	fractional viability, 0.00316 µM	fractional viability, 0.0316 µM	fractional viability, 0.316 µM	fractional viability, 3.16 µM	fractional viability, 31.6 µM	normalized growth rate inhibition value, 0.00316 µM	normalized growth rate inhibition value, 0.0316 µM	normalized growth rate inhibition value, 0.316 µM	normalized growth rate inhibition value, 3.16 µM	normalized growth rate inhibition value, 31.6 µM
[1]	0.426	0.5	0.467	0.416	0.166	–	–	–	–	–
[3]	–	–	–	–	–	0.057	0.0629	0.0107	-0.0225	-0.258

Conditions	drug GRADE
[5]	3.36
